Here are results for 28 compounds from PubChem BioAssay (NCI).

“And” between values parts separate entries of the source, which are not always exact repeats. Equal entries are not always repeated.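 Grown in 96-well plates, cells were treated for 48 hours with each compound at five concentrations. Insufficient inhibition: endpoint recorded as highest concentration tested. The concentration for 50% growth inhibition is given as GI50. TGI: concentration producing complete growth inhibition.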

Test systems include DLD-1 colon; T-47D breast; M19-MEL melanoma; HOP-18 NSCLC; SNB-78 CNS; KM20L2 colon; XF 498 CNS; MDA-N; RXF-631 renal.
Test in all cases: NCI-60 cell line screen, 48 h

With `O=c1c2ccccc2oc2ccccc12` (tested in a mixture with another compound), in the assay with DLD-1 colon, the TGI was 7.75 µM.

Take `CCN1CCN(c2cc(C(=O)Nc3cccc(Nc4ccc5c(OC)cccc5n4)c3)cc(C(F)(F)F)c2)CC1`: in the assay with T-47D breast, the GI50 was 2.05 µM and the TGI stood at 11.7 µM.

Regarding `O=c1cc[nH]cc1-c1c[nH]ccc1=O`, the TGI in the assay with M19-MEL melanoma, with HOP-18 NSCLC, in the assay with DLD-1 colon and with SNB-78 CNS was > 100 µM each time.

In the case of `COC(=O)/C(C#N)=C1\CCC(OC)N1C` (centres undefined), the TGI with M19-MEL melanoma, in the assay with HOP-18 NSCLC, in the assay with KM20L2 colon, with DLD-1 colon, in the assay on XF 498 CNS and in the assay with SNB-78 CNS was > 100 µM each time.

Consider `CN1CCN=C1c1nnn(-c2ccc([N+](=O)[O-])cc2)c1-c1ccccc1`, for which the TGI in the assay on M19-MEL melanoma, with HOP-18 NSCLC, in the assay on KM20L2 colon, in the assay on DLD-1 colon, in the assay with XF 498 CNS and in the assay with SNB-78 CNS was > 100 µM each time.

Consider `CS(=O)(=O)c1ccc(COP(N)(=O)N(CCCl)CCCl)cc1` (centres undefined), for which the TGI in the assay on M19-MEL melanoma, with KM20L2 colon, in the assay with DLD-1 colon, in the assay with XF 498 CNS and in the assay with SNB-78 CNS was > 100 µM throughout.

For `C=CCC12CC(=O)CCC1c1ccc(OC)cc1C2=O` (centres undefined), the TGI in the assay with M19-MEL melanoma, in the assay with HOP-18 NSCLC, with KM20L2 colon, in the assay with DLD-1 colon and in the assay on SNB-78 CNS was > 100 µM throughout.

In the case of `COc1cc2c(cc1OC)C(C(CBr)CBr)N(C1CCCC1)CC2` (centres undefined), the TGI with M19-MEL melanoma, in the assay on DLD-1 colon and with XF 498 CNS was > 100 µM in each case.

For the compound `Cc1nn(C)c2ncnc(N/N=C/c3cccc(O)c3O)c12`, in the assay on T-47D breast, the GI50 was 3.25 µM and the TGI was > 100 µM.

Consider `C1CSC[C@H]2COC[C@@H](CSCCS1)S2`, for which the TGI in the assay on MDA-N and with T-47D breast was > 100 µM in each case.

With `COc1cc(S(=O)(=O)Nc2nc(-c3ccc(N4C(=O)C(C)SC4c4ccccc4O)cc3)cs2)ccc1Cl` (centres undefined), in the assay with T-47D breast, the GI50 is 28.8 µM and the TGI is > 100 µM.

Take `CC(C)N(C(=O)C12C3C4C5(C(=O)O)C(C1C35I)C42C(=O)O)C(C)C` (centres undefined): the TGI in the assay with M19-MEL melanoma, with KM20L2 colon, with DLD-1 colon, in the assay with RXF-631 renal and in the assay on SNB-78 CNS was > 100 µM each time.

Consider `COC1=C(OC)C(=O)C(C/C=C(\C)CC/C=C(\C)CC/C=C(\C)CC/C=C(\C)CC/C=C(\C)CC/C=C(\C)CC/C=C(\C)CC/C=C(\C)CC/C=C(\C)CCC=C(C)C)=C(C)C1=O`, for which, in the assay with T-47D breast, the GI50 was > 100 µM and the TGI was > 100 µM.

With `COc1ccc(-c2cc3ccccc3[nH]c2=O)cc1OC`, the TGI in the assay with M19-MEL melanoma, in the assay with HOP-18 NSCLC, with KM20L2 colon, with DLD-1 colon, in the assay on XF 498 CNS and in the assay with SNB-78 CNS was > 100 µM each time.

For `CN1CCN(CCCOc2ccc3nc(Nc4ccc(F)c(F)c4)ccc3c2)CC1`, in the assay with T-47D breast, the GI50 was 1.88 µM and the TGI was 8.79 µM.

`COc1cc(/C=C/C(=O)CC(=O)/C=C/c2cc(OC)c(O)c(OC)c2)cc(OC)c1O`: in the assay on MDA-N, the GI50 is 16.9 µM; the TGI was 11.2 µM and > 100 µM. In the assay on T-47D breast, this compound yielded a TGI of 21.5 µM.

As for `CC1=C(CO)C(=O)O[C@@H]([C@@H](C)[C@H]2CC[C@H]3[C@@H]4C[C@H]5O[C@]56[C@@H](O)C=CC(=O)[C@]6(C)[C@H]4CC[C@]23C)C1`, the GI50 in the assay with T-47D breast is 0.5 µM. In addition, the TGI with T-47D breast is 2.5 µM; in the assay with M19-MEL melanoma, 3.01 µM; in the assay with KM20L2 colon, 1.47 µM; with DLD-1 colon, 1.03 µM; in the assay with XF 498 CNS, 2.82 µM.

Turning to `N#C/C(=C/N1CCN(C(=O)c2ccco2)C1=S)C(=O)Nc1ccc(Cl)cc1`, in the assay with T-47D breast, the GI50 was > 50 µM and the TGI is > 50 µM.

For `Cc1ccc(S(=O)(=O)n2cc([C@@]3(O)C[C@H](CSC#N)OC3=O)c3ccccc32)cc1`, in the assay with T-47D breast, the GI50 was 12.8 µM and the TGI was 32.5 µM.

In the assay on T-47D breast, `O=C1CC(c2cccc(Cl)c2)Oc2ccccc21` (centres undefined) came in with a TGI of 91.7 µM.

On to `CN1CCN(Cc2ccc(NC(=O)c3[nH]ncc3Nc3ncnc4[nH]ccc34)cc2)CC1`, for which, in the assay with T-47D breast, the GI50 was 0.365 µM and the TGI turned out to be 18.7 µM.

Consider `COc1cc(C)cc(C(=O)/C=C/c2ccccc2)c1O`, for which the TGI in the assay on MDA-N turned out to be 55.2 µM; in the assay on T-47D breast, 44.6 µM.

Turning to `COc1c(OC)c(OC)c2c(=O)cc(-c3ccc(OC(C)C)cc3)oc2c1OC`, the TGI in the assay with MDA-N is > 53.8 µM; in the assay with T-47D breast it was 42.5 µM.

`CC1=NN(c2ccccc2)C(=O)C12[C@H](c1ccccc1)C2(C#N)C#N` (some centres undefined): the TGI with M19-MEL melanoma amounted to 6.41 µM; with HOP-18 NSCLC it was 20.3 µM; in the assay on KM20L2 colon, 27.3 µM; in the assay with DLD-1 colon, 4.01 µM; in the assay with XF 498 CNS, 7.22 µM; in the assay with SNB-78 CNS, 34 µM.

For the compound `FC(F)c1ncc(-c2ccc(C(F)(F)F)cc2)c(NC2CCCCCC2)n1`, in the assay with T-47D breast, the GI50 was > 10 µM and the TGI is > 10 µM.

As for `NC1=NC(SCc2ccccc2CCl)c2ncn(Cc3ccccc3CCl)c2N1` (centres undefined), in the assay on T-47D breast, the GI50 was 1.54 µM and the TGI was found to be 3.34 µM.

As to `C=CC1C(CC2OC(CO)C(O)C(O)C2O)OC=C2C(=O)OCCC21O` (centres undefined), in the assay on T-47D breast, the GI50 is 32 µM and the TGI is > 100 µM.

For `O=C1OC(=O)C23CSCC12C1C=CC3O1` (centres undefined), the TGI in the assay on M19-MEL melanoma, in the assay on KM20L2 colon, in the assay on DLD-1 colon and with XF 498 CNS was > 100 µM each time.
